Data as given in patent publication US11504382B2, “Tricyclic inhibitors of Hepatitis B virus” (Antios Therapeutics, Inc., priority 2018, dated 2022).
Like-named read-outs stand apart in the source and are kept apart here.

Tested on: HBV
Assay: HBV inhibition assay in HepAD38 cells (extracellular HBV DNA by direct qPCR)
Format: cell-based, Hepatitis B virus
[1] = Hepatitis B virus, 96 hours, 8-point dose-response curve, read-out: HBV inh EC50
[2] = 96 hours, 8-point dose-response curve, read-out: HBV inh EC50
[3] = Hepatitis B virus, 96 hours, relative to non-treated reference, read-out: Anti HBV Activity (conc μM)

Cn1cc2c(c1C(=O)Nc1ccc(F)c(F)c1)OC[C@@]1(O)CCC[C@H]1NS2(=O)=O (racemic) [Example E30, cis-N-(3,4-difluorophenyl)-8a-hydroxy-2-methyl-5a,6,7,8,8a,9-hexahydro-2H,5H-cyclopenta[f]pyrrolo[3,4-b][1,4,5]oxathiazocine-1-carboxamide 4,4-dioxide]
inhibition at 0.5 µM (Hepatitis B virus, 0.5 μM, 96 hours, relative to non-treated reference, read-out: Anti HBV Activity (conc μM)): < 50%

Cc1nnc(C(=O)N2CCC3NS(=O)(=O)c4cn(C)c(C(=O)Nc5ccc(F)c(C)c5)c4OCC3C2)o1 (racemic) [Example E125, Cis-N-(4-fluoro-3-methylphenyl)-2-methyl-8-(5-methyl-1,3,4-oxadiazole-2-carbonyl)-5,5a,6,7,8,9,9a,10-octahydro-2H-pyrido[4,3-f]pyrrolo[3,4-b][1,4,5]oxathiazocine-1-carboxamide 4,4-dioxide]
EC50 [1]: < 1000 nM

Cc1cc(NC(=O)c2c3c(cn2C)S(=O)(=O)NC2CCN(C(=O)C4(C)COC4)CC2CO3)ccc1F (racemic) [Example E126, Cis-N-(4-fluoro-3-methylphenyl)-2-methyl-8-(3-methyloxetane-3-carbonyl)-5,5a,6,7,8,9,9a,10-octahydro-2H-pyrido[4,3-f]pyrrolo[3,4-b][1,4,5]oxathiazocine-1-carboxamide 4,4-dioxide]
EC50 [1]: < 1000 nM

Cc1cc(NC(=O)c2c3c(cn2C)S(=O)(=O)NC2CCN(C(=O)C4(C)CCCO4)CC2CO3)ccc1F (racemic) [Example E127, Cis-N-(4-fluoro-3-methylphenyl)-2-methyl-8-(2-methyltetrahydrofuran-2-carbonyl)-5,5a,6,7,8,9,9a,10-octahydro-2H-pyrido[4,3-f]pyrrolo[3,4-b][1,4,5]oxathiazocine-1-carboxamide 4,4-dioxide]
EC50 [1]: < 1000 nM

Cc1cc(NC(=O)c2c3c(cn2C)S(=O)(=O)NC2CCN(C(=O)C45CC(CO4)C5)CC2CO3)ccc1F (racemic) [Example E128, Cis-8-(2-oxabicyclo[2.1.1]hexane-1-carbonyl)-N-(4-fluoro-3-methylphenyl)-2-methyl-5,5a,6,7,8,9,9a,10-octahydro-2H-pyrido[4,3-f]pyrrolo[3,4-b][1,4,5]oxathiazocine-1-carboxamide 4,4-dioxide]
EC50 [1]: < 1000 nM

Cc1cc(NC(=O)c2c3c(cn2C)S(=O)(=O)NC2CCN(C(=O)c4ncoc4C)CC2CO3)ccc1F (racemic) [Example E129, Cis-N-(4-fluoro-3-methylphenyl)-2-methyl-8-(5-methyloxazole-4-carbonyl)-5,5a,6,7,8,9,9a,10-octahydro-2H-pyrido[4,3-f]pyrrolo[3,4-b][1,4,5]oxathiazocine-1-carboxamide 4,4-dioxide]
EC50 (read-out: HBV inh EC50, 96 hours, 8-point dose-response curve): < 1000 nM

Cc1nnc(C(=O)N2CCC3NS(=O)(=O)c4cn(C)c(C(=O)Nc5ccc(F)c(C)c5)c4OCC3C2)o1 (racemic) [Example E130, Trans-N-(4-fluoro-3-methylphenyl)-2-methyl-8-(5-methyl-1,3,4-oxadiazole-2-carbonyl)-5,5a,6,7,8,9,9a,10-octahydro-2H-pyrido[4,3-f]pyrrolo[3,4-b][1,4,5]oxathiazocine-1-carboxamide 4,4-dioxide]
EC50 [2]: < 1000 nM

Cc1cc(NC(=O)c2c3c(cn2C)S(=O)(=O)NC2CCN(C(=O)C4(C)CCCO4)CC2CO3)ccc1F (racemic) [Example E132, Trans-N-(4-fluoro-3-methylphenyl)-2-methyl-8-(2-methyltetrahydrofuran-2-carbonyl)-5,5a,6,7,8,9,9a,10-octahydro-2H-pyrido[4,3-f]pyrrolo[3,4-b][1,4,5]oxathiazocine-1-carboxamide 4,4-dioxide]
EC50 [2]: < 1000 nM

Cc1cc(NC(=O)c2c3c(cn2C)S(=O)(=O)NC2CCN(C(=O)C45CC(CO4)C5)CC2CO3)ccc1F (racemic) [Example E133, Trans-8-(2-oxabicyclo[2.1.1]hexane-1-carbonyl)-N-(4-fluoro-3-methylphenyl)-2-methyl-5,5a,6,7,8,9,9a,10-octahydro-2H-pyrido[4,3-f]pyrrolo[3,4-b][1,4,5]oxathiazocine-1-carboxamide 4,4-dioxide]
EC50 [2]: < 1000 nM

Cc1cc(NC(=O)c2c3c(cn2C)S(=O)(=O)NC2CCN(C(=O)c4ncoc4C)CC2CO3)ccc1F (racemic) [Example E134, Trans-N-(4-fluoro-3-methylphenyl)-2-methyl-8-(5-methyloxazole-4-carbonyl)-5,5a,6,7,8,9,9a,10-octahydro-2H-pyrido[4,3-f]pyrrolo[3,4-b][1,4,5]oxathiazocine-1-carboxamide 4,4-dioxide]
EC50 [1]: < 1000 nM

Cc1nnc(C(=O)N2CCC3COc4c(cn(C)c4C(=O)Nc4ccc(F)c(C)c4)S(=O)(=O)NC3C2)o1 (racemic) [Example E135, Cis-N-(4-fluoro-3-methylphenyl)-2-methyl-7-(5-methyl-1,3,4-oxadiazole-2-carbonyl)-5,5a,6,7,8,9,9a,10-octahydro-2H-pyrido[3,4-f]pyrrolo[3,4-b][1,4,5]oxathiazocine-1-carboxamide 4,4-dioxide]
EC50 [1]: < 1000 nM

Cc1cc(NC(=O)c2c3c(cn2C)S(=O)(=O)NC2CN(C(=O)C4(C)COC4)CCC2CO3)ccc1F (racemic) [Example E136, Cis-N-(4-fluoro-3-methylphenyl)-2-methyl-7-(3-methyloxetane-3-carbonyl)-5,5a,6,7,8,9,9a,10-octahydro-2H-pyrido[3,4-f]pyrrolo[3,4-b][1,4,5]oxathiazocine-1-carboxamide 4,4-dioxide]
EC50 [1]: < 1000 nM

Cc1cc(NC(=O)c2c3c(cn2C)S(=O)(=O)NC2CN(C(=O)C45CC(CO4)C5)CCC2CO3)ccc1F (racemic) [Example E138, Cis-7-(2-oxabicyclo[2.1.1]hexane-1-carbonyl)-N-(4-fluoro-3-methylphenyl)-2-methyl-5,5a,6,7,8,9,9a,10-octahydro-2H-pyrido[3,4-f]pyrrolo[3,4-b][1,4,5]oxathiazocine-1-carboxamide 4,4-dioxide]
EC50 [1]: < 1000 nM

Cc1cc(NC(=O)c2c3c(cn2C)S(=O)(=O)NC2CN(C(=O)c4ncoc4C)CCC2CO3)ccc1F (racemic) [Example E139, Cis-N-(4-fluoro-3-methylphenyl)-2-methyl-7-(5-methyloxazole-4-carbonyl)-5,5a,6,7,8,9,9a,10-octahydro-2H-pyrido[3,4-f]pyrrolo[3,4-b][1,4,5]oxathiazocine-1-carboxamide 4,4-dioxide]
EC50 [1]: < 1000 nM

Cc1cc(NC(=O)c2c3c(cn2C)S(=O)(=O)NC2CN(C(=O)C4(C)COC4)CCC2CO3)ccc1F (racemic) [Example E141, Trans-N-(4-fluoro-3-methylphenyl)-2-methyl-7-(3-methyloxetane-3-carbonyl)-5,5a,6,7,8,9,9a,10-octahydro-2H-pyrido[3,4-f]pyrrolo[3,4-b][1,4,5]oxathiazocine-1-carboxamide 4,4-dioxide]
EC50 [2]: < 1000 nM

Cc1cc(NC(=O)c2c3c(cn2C)S(=O)(=O)NC2CN(C(=O)C45CC(CO4)C5)CCC2CO3)ccc1F (racemic) [Example E143, Trans-7-(2-oxabicyclo[2.1.1]hexane-1-carbonyl)-N-(4-fluoro-3-methylphenyl)-2-methyl-5,5a,6,7,8,9,9a,10-octahydro-2H-pyrido[3,4-f]pyrrolo[3,4-b][1,4,5]oxathiazocine-1-carboxamide 4,4-dioxide]
EC50 [2]: < 1000 nM

Cc1cc(NC(=O)c2c3c(cn2C)S(=O)(=O)NC2CN(C(=O)c4ncoc4C)CCC2CO3)ccc1F (racemic) [Example E144, Trans-N-(4-fluoro-3-methylphenyl)-2-methyl-7-(5-methyloxazole-4-carbonyl)-5,5a,6,7,8,9,9a,10-octahydro-2H-pyrido[3,4-f]pyrrolo[3,4-b][1,4,5]oxathiazocine-1-carboxamide 4,4-dioxide]
EC50 [2]: < 1000 nM

Cn1cc2c(c1C(=O)Nc1cc(F)c(F)c(F)c1)OC[C@H]1CN(C(=O)c3ncco3)C[C@H]1NS2(=O)=O (relative stereo) [Example E50, cis-7-methyl-2-(oxazole-2-carbonyl)-N-(3,4,5-trifluorophenyl)-2,3,3a,4,10,10a-hexahydro-1H,7H-dipyrrolo[3,4-b:3′,4′-f][1,4,5]oxathiazocine-8-carboxamide 5,5-dioxide]
inhibition at 0.05 µM (Hepatitis B virus, 0.05 μM, 96 hours, relative to non-treated reference, read-out: Anti HBV Activity (conc μM)): > 50%
EC50 [1]: < 1000 nM

Cc1cc(NC(=O)c2c3c(cn2C)S(=O)(=O)N[C@@H]2CN(C(=O)c4ccncc4)C[C@@H]2CO3)ccc1F (relative stereo) [Example E55, cis-N-(4-fluoro-3-methylphenyl)-2-isonicotinoyl-7-methyl-2,3,3a,4,10,10a-hexahydro-1H,7H-dipyrrolo[3,4-b:3′,4′-f][1,4,5]oxathiazocine-8-carboxamide 5,5-dioxide]
inhibition at 0.1 µM [3]: > 50%

Cc1nnc(C(=O)N2C[C@@H]3COc4c(cn(C)c4C(=O)Nc4ccc(F)c(C)c4)S(=O)(=O)N[C@@H]3C2)s1 (relative stereo) [Example E62, cis-N-(4-fluoro-3-methylphenyl)-7-methyl-2-(5-methyl-1,3,4-thiadiazole-2-carbonyl)-2,3,3a,4,10,10a-hexahydro-1H,7H-dipyrrolo[3,4-b:3′,4′-f][1,4,5]oxathiazocine-8-carboxamide 5,5-dioxide]
EC50 [1]: < 1000 nM

Cn1cc2c(c1C(=O)Nc1cc(F)c(F)c(F)c1)OC[C@H]1CN(C(=O)COP(=O)(O)O)C[C@H]1NS2(=O)=O (relative stereo) [Example E72, cis-2-(7-methyl-5,5-dioxido-8-((3,4,5-trifluorophenyl)carbamoyl)-3a,4,10,10a-tetrahydro-1H,7H-dipyrrolo[3,4-b:3′,4′-f][1,4,5]oxathiazocin-2(3H)-yl)-2-oxoethyl Dihydrogen Phosphate]
inhibition at 0.1 µM [3]: < 50%

Cn1cc2c(c1C(=O)Nc1cc(F)c(F)c(F)c1)OC[C@H]1CN(c3ncc(O)cn3)C[C@H]1NS2(=O)=O (relative stereo) [Example E84, cis-2-(5-hydroxypyrimidin-2-yl)-7-methyl-N-(3,4,5-trifluorophenyl)-2,3,3a,4,10,10a-hexahydro-1H,7H-dipyrrolo[3,4-b:3′,4′-f][1,4,5]oxathiazocine-8-carboxamide 5,5-dioxide]
EC50 [1]: < 1000 nM
